What all share (experiment): growth of human tumour cells (NCI), 48 h
Experiment [1] concerns MDA-MB-435.
The test system of experiment [2] is OVCAR-3.
Experiment [3] relates to SK-MEL-28.
The subject of experiment [4] is HT-29.
In experiment [5] the test system is UACC-257.
Experiment [6] deals with HOP-92.
Experiment [7] relates to HCT-116.
Experiment [8] has as its system COLO 205.
For experiment [9], the system named is IGROV-1.
The test system of experiment [10] is DU-145.
For experiment [11], the system named is KM12.
Experiment [12] relates to UO-31.
Experiment [13] concerns HCC 2998.
The subject of experiment [14] is HCT-15.
Experiment [15] concerns OVCAR-8.
For experiment [16], the system named is RPMI-8226.
Experiment [17] deals with PC-3.
Experiment [18] concerns Malme-3M.
The test system of experiment [19] is RXF 393.
The test system of experiment [20] is HOP-62.

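Compound exposure: 48 hours, 5 concentrations, 96-well plates. GI50 = concentration required for 50% inhibition of growth.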 Active and inactive are the calls of the source. Rule as the data show it: active = GI50 up to about 1.1 µM and inactive = higher.

In the case of `C=C1CC2(OC1=O)c1ccccc1CCc1ccccc12`, the GI50 was 2.48 µM (inactive) in [1]; 1.89 µM (inactive) in [2]; 1.81 µM (inactive) in [3]; 1.84 µM (inactive) in [4]; 3.82 µM (inactive) in experiment [5]; 1.72 µM (inactive) in experiment [6]. Also, the GI50 is 1.44 µM (inactive) in experiment [7]; 1.91 µM (inactive) in experiment [8]; 7.23 µM (inactive) in experiment [9]; 18.7 µM (inactive) in experiment [10]; 3.61 µM (inactive) in experiment [11]; 9.82 µM (inactive) in experiment [12]. Also, the GI50 in experiment [13] is 2.54 µM (inactive); in experiment [14], 1.91 µM; in experiment [15], 4.48 µM (inactive); in experiment [16], 2.07 µM (inactive); in experiment [17], 14.3 µM (inactive); in [18], 1.94 µM (inactive). In addition, the results for the GI50 in experiment [19] and in experiment [20] were 1.66 µM (inactive) and 26.1 µM (inactive), respectively.

With `CCC1OC(=O)CC(O)C(C)C(OC2OC(C)CC(N(C)C)C2O)C(CC=O)CC(C)C(=O)/C=C/C2(C)OC2C1C` (stereo not given), the GI50 in experiment [1] was 16.8 µM (inactive); in experiment [2] it was 22.8 µM (inactive); in experiment [3], 21.4 µM (inactive); in [4] it was 17.9 µM (inactive); in [5] it was > 100 µM (inactive); in [6], 27.9 µM (inactive). The GI50 is 15.8 µM (inactive) in experiment [7]; 16.9 µM (inactive) in experiment [8]; 10.3 µM (inactive) in [9]; 23.2 µM (inactive) in experiment [10]; 14.4 µM (inactive) in experiment [11]; 23.3 µM (inactive) in [12]. Moreover, the GI50 in experiment [13] is > 100 µM (inactive); in [14] it was 18.3 µM; in experiment [15], 22.4 µM (inactive); in experiment [16], 27 µM (inactive); in [17], 26.6 µM (inactive); in [18], 21.7 µM (inactive). For the same compound, the figures for the GI50 in experiment [19] and in [20] were 17.2 µM (inactive) and 25.2 µM (inactive), respectively.

For the compound `CC1(C)OC(CP(c2ccccc2)c2ccccc2)C(CP(c2ccccc2)c2ccccc2)O1` (stereo not given), the GI50 in [1] is 2.16 µM (inactive); in [2], 0.0535 µM (active); in experiment [3], > 28.2 µM (inactive); in experiment [4], 0.656 µM (active); in experiment [6], 2.36 µM (inactive); in experiment [7], 0.165 µM (active). For the same compound, the GI50 in experiment [8] was 0.0792 µM (active); in experiment [9] it was 0.222 µM (active); in experiment [10], 2.23 µM (inactive); in experiment [11], 0.617 µM (active); in [12] it was 1.69 µM (inactive); in [13], 0.774 µM (active). The GI50 is 3.22 µM in [14]; 0.741 µM (active) in experiment [15]; 1.17 µM (inactive) in [16]; 0.0548 µM (active) in [17]; 1.99 µM (inactive) in experiment [18]; 0.857 µM (active) in [19]. For the same compound, the GI50 in experiment [20] is 0.418 µM (active).

With `CCCc1nnc2sc(COc3cc(Cl)c(OCc4nn5c(CCC)nnc5s4)cc3Cl)nn12`, the GI50 was 35.3 µM (inactive) in experiment [1]; 24.8 µM (inactive) in [2]; 5.66 µM (inactive) in experiment [3]; 53 µM (inactive) in [4]; 34.1 µM (inactive) in experiment [5]; 22 µM (inactive) in experiment [6]. Also, the GI50 was 46 µM (inactive) in experiment [7]; 50.5 µM (inactive) in [8]; 25.2 µM (inactive) in [9]; 47 µM (inactive) in [10]; 70.1 µM (inactive) in [11]; 77.8 µM (inactive) in [13]. The GI50 is 0.904 µM in experiment [14]; 27.4 µM (inactive) in experiment [15]; 0.0885 µM (active) in experiment [16]; > 100 µM (inactive) in experiment [17]; 25.9 µM (inactive) in experiment [18]; 31.6 µM (inactive) in [19]. Further, the GI50 in experiment [20] is 38.4 µM (inactive).

Take `CCn1c(-c2ccc(F)cc2)nc2c1C(=O)c1ccccc1C2=O`: the GI50 is > 100 µM (inactive) in experiment [1]; 33.8 µM (inactive) in [2]; > 100 µM (inactive) in [3]; 75.5 µM (inactive) in [4]; > 100 µM (inactive) in experiment [5]; > 100 µM (inactive) in [6]. The GI50 in [7], in [8], in experiment [9], in [10], in experiment [11] and in experiment [13] was > 100 µM (inactive) each time. The GI50 in experiment [14] is greater than 100 µM; in [15] it was > 100 µM (inactive); in experiment [16], > 100 µM (inactive); in experiment [17] it was > 100 µM (inactive); in [18], 45.1 µM (inactive); in experiment [19] it was 54 µM (inactive). Moreover, the GI50 in experiment [20] was > 100 µM (inactive).

Take `COc1cc(/C=C2\N=C(c3ccccc3)N(c3ccc4c(c3)Sc3cc(N5C(=O)/C(=C/c6cc(OC)c(OC)c(OC)c6)N=C5c5ccccc5)ccc3N4)C2=O)cc(OC)c1OC`: the GI50 was 18 µM (inactive) in experiment [1]; 20.8 µM (inactive) in experiment [2]; 40.6 µM (inactive) in experiment [3]; > 100 µM (inactive) in experiment [4]; 16.9 µM (inactive) in [5]; 18.8 µM (inactive) in experiment [6]. In addition, the GI50 was 42 µM (inactive) in experiment [7]; 20.9 µM (inactive) in experiment [8]; 17 µM (inactive) in experiment [9]; 54.3 µM (inactive) in experiment [10]; > 100 µM (inactive) in experiment [11]; 31.3 µM (inactive) in experiment [12]. Also, the GI50 in [13] is 21.2 µM (inactive); in [14], greater than 100 µM; in experiment [15], 18.5 µM (inactive); in [16] it was 27.4 µM (inactive); in [17], 19.6 µM (inactive); in experiment [18], 19.5 µM (inactive). Besides, the GI50 in experiment [19] is 20.7 µM (inactive); in experiment [20], 25.5 µM (inactive).

For `COC(=O)c1ccccc1/C=C1/Cc2ccccc2C1=O`, the GI50 in [1] is > 100 µM (inactive); in experiment [2] it was 23.8 µM (inactive); in [3], 65.5 µM (inactive); in [4] it was 37.9 µM (inactive); in [5] it was 24 µM (inactive); in experiment [6], 61.1 µM (inactive). The GI50 in experiment [7] was 24.4 µM (inactive); in experiment [8], 30 µM (inactive); in experiment [9], 27.3 µM (inactive); in experiment [10], > 100 µM (inactive); in experiment [11], 25.2 µM (inactive); in experiment [12], 50.6 µM (inactive). Also, the GI50 in experiment [13] is > 100 µM (inactive); in [14], 23.4 µM; in experiment [15] it was 47.1 µM (inactive); in experiment [16], 22 µM (inactive); in experiment [17] it was 48.2 µM (inactive); in experiment [18] it was 50.5 µM (inactive). Also, the figures for the GI50 in [19] and in [20] were 54.6 µM (inactive) and 98.4 µM (inactive), respectively.

With `C=CC[C@]12C=C(OC)[C@@H](O)[C@](OC)(C(c3cc(OC)c4c(c3)OCO4)[C@H]1C)[C@H]2OC(C)=O` (stereo not given in full), the GI50 was 94.6 µM (inactive) in [1]; > 100 µM (inactive) in experiment [2]; > 100 µM (inactive) in experiment [3]; > 100 µM (inactive) in experiment [4]; > 100 µM (inactive) in experiment [5]; 83.6 µM (inactive) in experiment [6]. The GI50 is > 100 µM (inactive) in experiment [7]; > 100 µM (inactive) in experiment [8]; > 100 µM (inactive) in experiment [9]; > 100 µM (inactive) in experiment [10]; > 100 µM (inactive) in [11]; 89.3 µM (inactive) in [12]. Moreover, the GI50 in experiment [13] is > 100 µM (inactive); in experiment [14] it was greater than 100 µM; in experiment [15], > 100 µM (inactive); in experiment [16], > 100 µM (inactive); in [17], 62.5 µM (inactive); in experiment [18], > 100 µM (inactive). Further, the GI50 in experiment [19] and in experiment [20] was > 100 µM (inactive) in each case.

For `COc1cccc(-c2cc(=O)c3ccc(C)nc3[nH]2)c1`, the GI50 was < 0.01 µM (active) in experiment [1]; 0.0219 µM (active) in experiment [2]; 0.0331 µM (active) in experiment [4]; 0.0401 µM (active) in [6]; 0.0448 µM (active) in [7]; 0.0277 µM (active) in experiment [8]. For the same compound, the GI50 is 0.0461 µM (active) in [9]; 0.0824 µM (active) in experiment [10]; 0.0366 µM (active) in [11]; 0.0752 µM (active) in experiment [12]; 0.0715 µM (active) in experiment [13]; 0.0402 µM in experiment [14]. The GI50 in [15] was 0.0847 µM (active); in experiment [16] it was 0.034 µM (active); in experiment [17] it was 0.0361 µM (active); in experiment [18], 0.0403 µM (active); in experiment [19], 0.0274 µM (active); in experiment [20], 0.0904 µM (active).

In the case of `COc1cc2c(cc1C[N+](C)(C)CSc1ccccc1)-c1ccccc1CC2`, the GI50 was 3.18 µM (inactive) in experiment [1]; 2.29 µM (inactive) in [2]; 4.31 µM (inactive) in [3]; 2.25 µM (inactive) in [4]; 2.52 µM (inactive) in experiment [5]; 8.51 µM (inactive) in experiment [6]. For the same compound, the GI50 in experiment [7] is 2.24 µM (inactive); in experiment [8], 1.75 µM (inactive); in experiment [9], 2.47 µM (inactive); in experiment [10], 8.61 µM (inactive); in [11], 2.2 µM (inactive); in experiment [12] it was 15.2 µM (inactive). Moreover, the GI50 in experiment [13] is 4.31 µM (inactive); in experiment [14] it was 16.5 µM; in experiment [15] it was 3.9 µM (inactive); in experiment [16] it was 1.57 µM (inactive); in experiment [17], 2.61 µM (inactive); in experiment [18], 1.71 µM (inactive). Moreover, the GI50 in [19] is 6.53 µM (inactive); in [20], 11.4 µM (inactive).
